Source: US10730863B2, “Bridged bicyclic compounds as farnesoid X receptor modulators” (BRISTOL-MYERS SQUIBB COMPANY, priority 2017, dated 2020)
pEC50: −log10 of the molar value.

Target: FXR (Homo sapiens (Human), UniProt Q96RI1)
Assay: FXR EC50 (FXR agonist activity reported with each example)
Type: cell-based

Sequence of FXR (Q96RI1 262-486): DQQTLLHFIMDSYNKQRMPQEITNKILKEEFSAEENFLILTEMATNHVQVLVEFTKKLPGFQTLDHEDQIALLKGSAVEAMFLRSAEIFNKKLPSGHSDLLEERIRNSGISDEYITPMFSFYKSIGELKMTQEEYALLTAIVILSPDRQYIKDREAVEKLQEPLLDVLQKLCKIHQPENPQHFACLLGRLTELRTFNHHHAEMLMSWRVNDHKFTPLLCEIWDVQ

SMILES | pEC50
O=C(O)c1ccc(NC(=S)C23CCC(COCc4c(-c5c(Cl)cccc5Cl)noc4C4CC4)(CC2)CC3)c(Cl)c1 [Example 171, 3-chloro-4-(4-(((5-cyclopropyl-3-(2,6-dichlorophenyl)isoxazol-4-yl)methoxy)methyl)bicyclo[2.2.2]octane-1-carbothioamido)benzoic acid] | 5.33
O=C(O)c1cccc2nc(C34CCC(COCc5c(-c6c(Cl)cccc6Cl)noc5C5CC5)(CC3)CC4)sc12 [Example 172, 2-(4-(((5-cyclopropyl-3-(2,6-dichlorophenyl)isoxazol-4-yl)methoxy)methyl)bicyclo[2.2.2]octan-1-yl)benzo[d]thiazole-7-carboxylic acid] | 7.05
O=C(O)c1cccc(NC(=O)C23CCC(COCc4c(-c5c(Cl)cccc5Cl)noc4C4CC4)(CC2)CC3)c1Cl [Example 173] | 5.85
O=C(O)c1ccc(C23CCC(COCc4c(-c5c(Cl)cccc5Cl)noc4C4CC4)(CC2)CC3)cc1 [Example 174, 4-(4-(((5-cyclopropyl-3-(2,6-dichlorophenyl)isoxazol-4-yl)methoxy)methyl)bicyclo[2.2.2]octan-1-yl)benzoic acid] | 6.68
O=C(O)c1csc(OCC23CCC(COCc4c(-c5c(Cl)cccc5Cl)noc4C4CC4)(CC2)CC3)n1 [Example 176, 2-((4-(((5-cyclopropyl-3-(2,6-dichlorophenyl)isoxazol-4-yl)methoxy)methyl)bicyclo[2.2.2]octan-1-yl)methoxy)thiazole-4-carboxylic acid] | 6.13
O=C(O)c1coc(C23CCC(COCc4c(-c5c(Cl)cccc5Cl)noc4C4CC4)(CC2)CC3)n1 [Example 177, 2-(4-(((5-cyclopropyl-3-(2,6-dichlorophenyl)isoxazol-4-yl)methoxy)methyl)bicyclo[2.2.2]octan-1-yl)oxazole-4-carboxylic acid] | 5.74
O=C(O)c1ccc2nc(C34CCC(COCc5c(-c6c(Cl)cccc6Cl)noc5C5CC5)(CC3)CC4)oc2c1 [Example 178, 2-(4-(((5-cyclopropyl-3-(2,6-dichlorophenyl)isoxazol-4-yl)methoxy)methyl)bicyclo[2.2.2]octan-1-yl)benzo[d]oxazole-6-carboxylic acid] | 6.04
Cc1nc(C23CCC(COCc4c(-c5c(Cl)cccc5Cl)noc4C4CC4)(CC2)CC3)sc1C(=O)O [Example 179, 2-(4-(((5-cyclopropyl-3-(2,6-dichlorophenyl)isoxazol-4-yl)methoxy)methyl)bicyclo[2.2.2]octan-1-yl)-4-methylthiazole-5-carboxylic acid] | 6.25
O=C(O)c1ccc2nc(C34CCC(/C=C/c5c(-c6c(Cl)cccc6Cl)noc5C5CC5)(CC3)CC4)sc2c1 [Example 180, (E)-2-(4-(2-(5-cyclopropyl-3-(2,6-dichlorophenyl)isoxazol-4-yl)vinyl)bicyclo[2.2.2]octan-1-yl)benzo[d]thiazole-6-carboxylic acid] | 7.37
O=C(O)c1ccc2nc(C34CCC(/C=C\c5c(-c6c(Cl)cccc6Cl)noc5C5CC5)(CC3)CC4)sc2c1 [Example 181, (Z)-2-(4-(2-(5-cyclopropyl-3-(2,6-dichlorophenyl)isoxazol-4-yl)vinyl)bicyclo[2.2.2]octan-1-yl)benzo[d]thiazole-6-carboxylic acid] | 6.11
O=C(O)c1ccc2nc(C34CCC(/C=C/c5c(-c6ccccc6OC(F)(F)F)noc5C5CC5)(CC3)CC4)sc2c1 [Example 182, (E)-2-(4-(2-(5-cyclopropyl-3-(2-(trifluoromethoxy)phenyl)isoxazol-4-yl)vinyl)bicyclo[2.2.2]octan-1-yl)benzo[d]thiazole-6-carboxylic acid] | 7.00
O=C(O)c1cccc2nc(C34CCC(C=Cc5c(-c6ccccc6OC(F)(F)F)noc5C5CC5)(CC3)CC4)sc12 [Example 183] | 7.89
O=C(O)c1cccc2nc(C34CCC(C=Cc5c(-c6c(Cl)cccc6Cl)noc5C5CC5)(CC3)CC4)sc12 [Example 184] | 7.70
O=C(O)c1cccc(NC(=O)C23CCC(C=Cc4c(-c5c(Cl)cccc5Cl)noc4C4CC4)(CC2)CC3)c1Cl [Example 185] | 5.85
O=C(O)c1cccc2nc(C34CCC(C=Cc5c(-c6ccccc6OC(F)(F)F)noc5C5CC5)(CC3)CC4)sc12 [Example 186] | 7.17
COC(=O)c1cccc(NC(=O)C23CCC(C=Cc4c(-c5c(Cl)cccc5Cl)noc4C4CC4)(CC2)CC3)c1 [Example 187] | 5.52
O=C(O)c1cccc(NC(=O)C23CCC(C=Cc4c(-c5c(Cl)cccc5Cl)noc4C4CC4)(CC2)CC3)c1 [Example 188] | 6.92
O=C(O)c1cccc2nc(C34CCC(C=Cc5c(-c6c(Cl)cccc6Cl)noc5C5CC5)(CC3)CC4)sc12 [Example 189] | 7.20
O=C(O)c1cccc(NC(=O)C23CCC(C=Cc4c(-c5c(Cl)cccc5Cl)noc4C4CC4)(CC2)CC3)c1 [Example 190] | 5.46
O=C(O)c1cc(F)c2nc(OCC34CCC(C=Cc5c(-c6c(Cl)cccc6Cl)noc5C5CC5)(CC3)CC4)sc2c1 [Example 191] | 7.24
O=C(O)c1ccc2nc(OCC34CCC(C=Cc5c(-c6c(Cl)cccc6Cl)noc5C5CC5)(CC3)CC4)sc2c1 [Example 192] | 8.14
O=C(O)c1cccc(-c2noc(C34CCC(OCc5c(-c6c(Cl)cccc6Cl)noc5C5CC5)(CC3)CO4)n2)c1 [Example 193, 3-(5-(4-((5-cyclopropyl-3-(2,6-dichlorophenyl)isoxazol-4-yl)methoxy)-2-oxabicyclo[2.2.2]octan-1-yl)-1,2,4-oxadiazol-3-yl)benzoic acid] | 7.59
O=C(O)c1ccc(C23CCC(/C=C/c4c(-c5c(Cl)cccc5Cl)noc4C4CC4)(CC2)CO3)cc1 [Example 194, (E)-4-(4-(2-(5-cyclopropyl-3-(2,6-dichlorophenyl)isoxazol-4-yl)vinyl)-2-oxabicyclo[2.2.2]octan-1-yl)benzoic acid] | 7.47

SMILES | pEC50
O=C(O)c1cccc(C23CCC(COCc4c(-c5c(Cl)cccc5Cl)noc4C4CC4)(CC2)CO3)c1 [Example 195, 3-(4-(((5-cyclopropyl-3-(2,6-dichlorophenyl)isoxazol-4-yl)methoxy)methyl)-2-oxabicyclo[2.2.2]octan-1-yl)benzoic acid] | 7.33
O=C(O)c1ccc(-c2noc(C34CCC(OCc5c(-c6c(Cl)cccc6Cl)noc5C5CC5)(CC3)CO4)n2)cc1 [Example 196] | 7.08
O=C(O)c1cccc(/C=C/C23CCC(COCc4c(-c5ccccc5OC(F)(F)F)noc4C4CC4)(CC2)CO3)c1 [Example 197, (E)-3-(2-(4-(((5-cyclopropyl-3-(2-(trifluoromethoxy)phenyl)isoxazol-4-yl)methoxy)methyl)-2-oxabicyclo[2.2.2]octan-1-yl)vinyl)benzoic acid] | 7.05
O=C(O)c1cc(-c2noc(C34CCC(OCc5c(-c6c(Cl)cccc6Cl)noc5C5CC5)(CC3)CO4)n2)ccc1F [Example 198] | 7.01
O=C(O)c1cccc(-c2noc(C34CCC(OCc5c(-c6ccccc6OC(F)(F)F)noc5C5CC5)(CC3)CO4)n2)c1 [Example 199] | 6.66
O=C(O)c1cccc(/C=C/C23CCC(COCc4c(-c5c(Cl)cccc5Cl)noc4C4CC4)(CC2)CO3)c1 [Example 200] | 6.66
O=C(O)c1ccc(C23CCC(COCc4c(-c5c(Cl)cccc5Cl)noc4C4CC4)(CC2)CO3)cc1 [Example 201] | 6.57
O=C(O)c1cc(C23CCC(COCc4c(-c5c(Cl)cccc5Cl)noc4C4CC4)(CC2)CO3)ccc1F [Example 202] | 6.41
O=C(O)c1ccc(C23CCC(CNc4c(-c5c(Cl)cccc5Cl)noc4C4CC4)(CC2)CO3)cc1 [Example 203, 4-(4-(((5-cyclopropyl-3-(2,6-dichlorophenyl)isoxazol-4-yl)amino)methyl)-2-oxabicyclo[2.2.2]octan-1-yl)benzoic acid] | 6.38
O=C(O)c1cccc(C23CCC(COCc4c(-c5ccccc5OC(F)(F)F)noc4C4CC4)(CC2)CO3)c1 [Example 204] | 6.36
O=C(O)c1ccc(C23CCC(COCc4c(-c5ccccc5OC(F)(F)F)noc4C4CC4)(CC2)CO3)cc1 [Example 205] | 6.35
O=C(O)c1cccc(-c2noc(C34CCC(OCc5c(-c6c(Cl)cncc6Cl)noc5C5CC5)(CC3)CO4)n2)c1 [Example 206] | 6.31
O=C(O)c1cc(C23CCC(COCc4c(-c5ccccc5OC(F)(F)F)noc4C4CC4)(CC2)CO3)ccc1F [Example 207] | 6.24
NC(=O)c1ccc(C23CCC(CNc4c(-c5c(Cl)cccc5Cl)noc4C4CC4)(CC2)CO3)cc1 [Example 208, 4-(4-(((5-cyclopropyl-3-(2,6-dichlorophenyl)isoxazol-4-yl)amino)methyl)-2-oxabicyclo[2.2.2]octan-1-yl)benzamide] | 6.15
O=C(O)c1ccc(-c2noc(C34CCC(COCc5c(-c6ccccc6OC(F)(F)F)noc5C5CC5)(CC3)CO4)n2)cc1 [Example 209, 4-(5-(4-(((5-cyclopropyl-3-(2-(trifluoromethoxy)phenyl)isoxazol-4-yl)methoxy)methyl)-2-oxabicyclo[2.2.2]octan-1-yl)-1,2,4-oxadiazol-3-yl)benzoic acid] | 6.33
O=C(O)c1cccc(-c2noc(C34CCC(COCc5c(-c6c(Cl)cccc6Cl)noc5C5CC5)(CC3)CO4)n2)c1 [Example 210, 3-(5-(4-(((5-cyclopropyl-3-(2,6-dichlorophenyl)isoxazol-4-yl)methoxy)methyl)-2-oxabicyclo[2.2.2]octan-1-yl)-1,2,4-oxadiazol-3-yl)benzoic acid] | 6.02
O=C(O)c1ccc(-c2noc(C34CCC(COCc5c(-c6c(Cl)cccc6Cl)noc5C5CC5)(CC3)CO4)n2)cc1 [Example 211] | 6.01
O=C(O)c1ccc(-c2noc(C34CCC(OCc5c(-c6ccccc6OC(F)(F)F)noc5C5CC5)(CC3)CO4)n2)cc1 [Example 212] | 6.00
O=C(O)c1cccc(-c2noc(C34CCC(COCc5c(-c6ccccc6OC(F)(F)F)noc5C5CC5)(CC3)CO4)n2)c1 [Example 213] | 5.92
O=C(O)c1csc(C23CCC(COCc4c(-c5ccccc5OC(F)(F)F)noc4C4CC4)(CC2)CO3)n1 [Example 214] | 5.85
CS(=O)(=O)NC(=O)c1cccc(C23CCC(COCc4c(-c5c(Cl)cccc5Cl)noc4C4CC4)(CC2)CO3)c1 [Example 215] | 5.80
O=C(O)c1csc(C23CCC(COCc4c(-c5c(Cl)cccc5Cl)noc4C4CC4)(CC2)CO3)n1 [Example 216] | 5.70
